Data as given in patent US20080200403A1, “9A-Carbamoyl and Thiocarbamoyl Azalides with Anti-Inflammatory Activity” (GLAXOSMITHKLINE, priority 2005, published 2008).
Read-outs that look alike come from different tables or passages of the source. Each block holds one molecule with its values, some of them ahead of it.

Experiments:
[1] = tested on: Hep G2; assay: MTT cytotoxicity assay on Hep G2 cell line; type: cell-based
Protocol: (§1) To determine whether the anti-inflammatory activity of the test compounds was due to observed inhibition of cytokine production and inhibition of proliferation in vitro, and was not a consequence of cellular cytotoxicity, measurement of succinate dehydrogenase activity in living cells was performed. Cells were cultured for 24 h in RPMI medium as described above at 37° C. in the presence of the test compounds at concentrations of 50 μM and 12.5 μM. MTT [3-(4,5-dimethylthiazole-2-yl)-2,5-diphenyl tetrazolium bromide] (Promega, USA), a detection reagent, was then added and the cultures were incubated for 0.5-2 h. The amount of MTT-Formazan produced was determined using a spectrophotometer at 490 nm (Mosmann, J. Imnunol. Methods, 1983, 65: 55-63). Percentage of viable cells was calculated using the following formula:
(§2) % viable cells=([…]OD490 treated cells/OD490 nontreated cells)×100

[2] = tested on: granulocytes; assay: Inhibition of degranulation of granulocytes (elastase release); type: cell-based, human; conditions: for inhibition at 50 µM: Homo sapiens, read-out: Percentage of inhibition of degranulation of granulocytes
Protocol: (§3) Granulocytes were obtained from heparinized whole blood using density gradient centrifugation. Erythrocytes were sedimented on 3% dextran T-500 (Amersham Pharmacia Biotech AB, Uppsala, Sweden). Leukocytes were centrifuged on Ficoll (Amersham Pharmacia Biotech AB, Uppsala, Sweden) for 35 min at 600 g at 20° C. The pellet of granulocytes was cleared from remaining erythrocytes by a brief hypotonic lysis.
1×10^6 granulocytes, isolated as described above, were resuspended in RPMI-1640 medium (Institute of Immunology, Croatia), and were incubated with 10 or 50 μM of test compound together with cytochalasine B (5 μg/mL) for 2 h at 37° C. Degranulation then was induced by the addition of 0.1 μM fMLP (Sigma, USA) or 0.5 μM A23187 (Calbiochem, USA). The activity of free neutrophil elastase was determined with a chromogenic substrate specific for human neutrophil elastase, such as n-methoxysuccinyl-1-alanyl-1-alanyl-1-prolyl-lvalyl-p-niytoanlide (Sigma Chemical Company, St Louis, Mo., USA) Elastase activity, as a marker of primary granules, was assessed in supernatant using a spectrophotometer at an absorbance of 405 nm. Results are expressed as the percent of inhibition of degranulation in unstimulated cells, and in stimulated cells treated with fMLP or A23187.

[3] = tested on: TNF-α; assay: Lipopolysaccharide induced TNF-α production in Balb/cJ mice; type: in vivo; conditions: LPS stimulated Balb/cJ mice, 10 mg/kg b.w. intraperitoneally, plasma 90 min after challenge
Protocol: Male Balb/cJ mice (Iffa Credo, France), 18 animals weighing 25-33 g were randomly grouped (7 animals were treated with the test compounds, 7 were in positive control and 4 in negative control). Substances, as well as vehiculum [0.125% carboxymethyl-cellulose (Sigma, USA)], were administered intraperitoneally. Substances were administered in the dose of 10 mg/kg b.w. Administered volume was 10 mL/kg b.w. Thirty minutes later, lipopolysaccharide (LPS) (Sigma, USA) solution in sterile saline at concentration and volume of 25 μg/0.2 mL of sterile saline/mouse was intraperitoneally administered to each animal except those in negative control. Ninety minutes after the challenge all animals were bled to death by puncturing a carotis communis. Plasma concentration of TNF-α was determined by sandwich ELISA, using capture and detection antibodies (R&D, USA) according to manufacturer's recommendations. Results are presented in the following table as % of inhibition of TNF-α production in comparison to positive control (challenged but not treated animals).

[4] = tested on: A549; assay: MTT cytotoxicity assay on A549 cell line; type: cell-based
Protocol: as §1, §2

[5] = tested on: human granulocytes; assay: Oxidative burst inhibition assay on granulocytes (luminol); type: cell-based; conditions: Homo sapiens; for inhibition at 12.5 µM: compound 12.5 μM; for inhibition at 50 µM: compound 50 μM
Protocol: as §3
The effect of compounds on oxidative burst was investigated in vitro with oxidative burst assay in human granulocytes, isolated as described above. Assay was done in 96 well plate. Blood was obtained from healthy volunteers (Transfusion Center, Croatia) and human granulocytes were isolated by dextran sedimentation and ficoll extraction method, as described above. In each well 50000 isolated granulocytes were suspended in 100 μL of DMEM. Final concentrations of the tested compounds were 50 and 12.5 μM. Than, 50 μL of luminol (c=0.25 mg/mL) was added. Luminol as a detector of oxidative burst react with superoxide and light is produced as one of the reaction products. Subsequently, 50 μL of stimuli, phorbol-12-myristate acetate (PMA) (c=33 ng/mL) or Zymosan (c=120 μg/mL), were added.

[6] = tested on: IL-5; assay: Inhibition of IL-5 production by stimulated human PBMC in vitro; type: cell-based; conditions: PHA stimulated, 3 days
Protocol: Heparinized peripheral blood was obtained from healthy donors, and peripheral blood mononuclear cells (PBMC) were isolated by Histopaque 1077 (Sigma, USA) density centrifugation on 400 g for 30 minutes. Collected PBMC were centrifuged in plasma on 400 g/10 min, resuspended and washed in RPMI 1640 (Institute of Immunology, Croatia) by centrifugation.
Peripheral blood mononuclear cells (PBMC), isolated as described above, were seeded in a 48-well plate at a concentration of 1×10^6 cells per well in the RPMI culture medium described above. Cells were stimulated with 10 μg/mL phytohaemagglutinin (PHA) (Sigma, USA) and incubated at 37° C., 5% CO2 in 90% humidity with tested compounds (10 and 50 μM) for 3 days. Cytokine concentrations were determined in supernatants by sandwich ELISA, using capture and detection antibodies (R&D, USA) according to the manufacturer's recommendations.
Inhibition (as percentage) was calculated using the following formula: % inhibition=(1−concentration of cytokines in sample/concentration of cytokines in positive control)×100. The positive control refers to stimulated samples, not treated with substances.

[7] = A23187 0.5 μM stimulated, compound 50 μM
[8] = fMLP 0.1 μM stimulated, compound 50 μM
[9] = PMA stimulated granulocytes, read-out: % inhibition of Oxidative burst PMA
[10] = Zymosan stimulated granulocytes, read-out: % inhibition of Oxidative burst Zymosan
[11] = A23187 0.5 μM stimulated, compound 10 μM
[12] = fMLP 0.1 μM stimulated, compound 10 μM

Compound: CC[C@H]1OC(=O)[C@H](C)[C@@H](O[C@H]2C[C@@](C)(OC)[C@@H](O)[C@H](C)O2)[C@H](C)[C@@H](O[C@@H]2O[C@H](C)C[C@H](N(C)C)[C@H]2O)[C@](C)(O)C[C@@H](C)CN(C)[C@H](C)[C@@H](O)[C@]1(C)O [Azithromycin, azithromycin, reference compound]
- Percentage of viable cells after treatment ([1]; human, 24 h, 12.5 μM): 100%
- Percentage of viable cells after treatment ([1]; human, 24 h, 50 μM): >95%
- inhibition at 50 µM [2, 7]: 16%
- inhibition at 50 µM [2, 8]: 36%
- TNF-α (% inhibition) [3]: 54%
- Percentage of viable cells after treatment ([4]; human, 24 h, 12.5 μM): 100%
- Percentage of viable cells after treatment ([4]; human, 24 h, 50 μM): 100%
- inhibition at 12.5 µM [5, 9]: 0%
- inhibition at 50 µM [5, 9]: 20%
- inhibition at 12.5 µM [5, 10]: 0%
- inhibition at 50 µM [5, 10]: 16%

Compound: CCC1OC(=O)C(C)C(OC2CC(C)(OC)C(O)C(C)O2)C(C)C(OC2OC(C)CC(N(C)C)C2O)C(C)(O)CC(C)CN(C(=S)Nc2cccc(F)c2)C(C)C(O)C1(C)O (stereo not shown) [Compound 3]
- Percentage of inhibition of IL-5 production ([6]; compound 10 μM): 80%
- Percentage of inhibition of IL-5 production ([6]; compound 50 μM): 78%
- Percentage of viable cells after treatment ([1]; Hep G2, 24 h, compound 12.5 μM): 100%
- Percentage of viable cells after treatment ([1]; Hep G2, 24 h, compound 50 μM): >85%
- Percentage of inhibition of degranulation of granulocytes [2, 11]: 2%
- Percentage of inhibition of degranulation of granulocytes [2, 7]: 75%
- Percentage of inhibition of degranulation of granulocytes [2, 12]: 25%
- Percentage of inhibition of degranulation of granulocytes [2, 8]: 33%
- TNF-α (% inhibition) [3]: 29%
- Percentage of viable cells after treatment ([4]; A549, 24 h, compound 12.5 μM): 100%
- Percentage of viable cells after treatment ([4]; A549, 24 h, compound 50 μM): >90%

- Percentage of inhibition of degranulation of granulocytes [2, 11]: 20%
- Percentage of inhibition of degranulation of granulocytes [2, 7]: 27%
- Percentage of inhibition of degranulation of granulocytes [2, 12]: 37%
- Percentage of inhibition of degranulation of granulocytes [2, 8]: 72%
Compound: CCC1OC(=O)C(C)C(O)C(C)C(OC2OC(C)CC(N(C)C)C2O)C(C)(O)CC(C)CN(C(=S)NCc2ccccc2)C(C)C(O)C1(C)O (stereo not shown) [Compound 1]
- Percentage of inhibition of IL-5 production ([6]; compound 10 μM): 14%
- Percentage of inhibition of IL-5 production ([6]; compound 50 μM): 73%
- TNF-α (% inhibition) [3]: 31%

Compound: CC[C@H]1OC(=O)[C@H](C)[C@@H](O[C@H]2C[C@@](C)(OC)[C@@H](O)[C@H](C)O2)[C@H](C)[C@@H](O[C@@H]2O[C@H](C)C[C@H](N(C)C)[C@H]2O)[C@](C)(OC)C[C@@H](C)C(=O)[C@H](C)[C@@H](O)[C@]1(C)O [Clarithromycin, clarithromycin, reference compound]
- inhibition at 10 µM ([6]; Homo sapiens, 72 h, compound 10 μM, read-out: Percentage of inhibition of IL-5 production): 13%
- inhibition at 50 µM ([6]; Homo sapiens, 72 h, compound 50 μM, read-out: Percentage of inhibition of IL-5 production): 47%
- Percentage of viable cells after treatment ([1]; human, 24 h, 12.5 μM): 100%
- Percentage of viable cells after treatment ([1]; human, 24 h, 50 μM): 100%
- TNF-α (% inhibition) [3]: 63%
- Percentage of viable cells after treatment ([4]; human, 24 h, 12.5 μM): 100%
- Percentage of viable cells after treatment ([4]; human, 24 h, 50 μM): 100%
- inhibition at 12.5 µM [5, 9]: 0%
- inhibition at 50 µM [5, 9]: 3%
- inhibition at 12.5 µM [5, 10]: 4%
- inhibition at 50 µM [5, 10]: 19%

Compound: CC[C@H]1OC(=O)[C@H](C)[C@@H](O[C@H]2C[C@@](C)(OC)[C@@H](O)[C@H](C)O2)[C@H](C)[C@@H](O[C@@H]2O[C@H](C)C[C@H](N(C)C)[C@H]2O)[C@](C)(O)C[C@@H](C)CN(C(=S)Nc2ccccc2F)[C@H](C)[C@@H](O)[C@]1(C)O [Compound 5]
- Percentage of viable cells after treatment ([1]; human, 24 h, 12.5 μM): 100%
- Percentage of viable cells after treatment ([1]; human, 24 h, 50 μM): 100%
- TNF-α (% inhibition) [3]: 50%
- Percentage of viable cells after treatment ([4]; human, 24 h, 12.5 μM): 100%
- Percentage of viable cells after treatment ([4]; human, 24 h, 50 μM): 100%

Compound: CC[C@H]1OC(=O)[C@H](C)[C@@H](O[C@H]2C[C@@](C)(OC)[C@@H](O)[C@H](C)O2)[C@H](C)[C@@H](O[C@@H]2O[C@H](C)C[C@H](N(C)C)[C@H]2O)[C@](C)(O)C[C@@H](C)CN(C(=S)Nc2cccc(C(F)(F)F)c2)[C@H](C)[C@@H](O)[C@]1(C)O [Compound 4]
- inhibition at 12.5 µM [5, 9]: 16%
- inhibition at 50 µM [5, 9]: 85%
- inhibition at 12.5 µM [5, 10]: 0%
- inhibition at 50 µM [5, 10]: 100%
